{
  "source": "paper PMC5454376",
  "about": "“Molecular mechanism of Gαi activation by non-GPCR proteins with a Gα-Binding and Activating motif” (Nature Communications, 2017)",
  "test_system": "Gαi3 N269D",
  "experiment": "Co-immunoprecipitation in HEK293T cells, Gαi3 N269D versus WT",
  "format": "binding",
  "details": "HEK293T lysates, FLAG-tagged Gαi3 N269D vs WT; GST-Ric-8A 1 μg added",
  "protocol": "HEK293T cells (American Type Culture Collection) were grown at 37 °C in DMEM supplemented with 10% FBS, 100 U ml^−1 penicillin, 100 μg ml^−1 streptomycin, 1% L-glutamine and 5% CO2. DNA plasmids encoding for C-terminally 3xFLAG-tagged Gαi3 (ref. [25]) or an empty plasmid (p3xFLAG-CMV-14) were transfected using the calcium phosphate method in 10 cm dishes. The DNA amount for the Gαi3 N269D plasmid was threefold (12 μg) of that for Gαi3 WT (4 μg) to equalize their expression levels. Cells were collected 48 h after transfection by gently scrapping in PBS, centrifuged and resuspended in 1 ml of lysis buffer (20 mM HEPES (pH 7.2), 5 mM Mg(CH3COO)2, 125 mM K(CH3COO), 0.4% (v:v) Triton X-100, 1 mM DTT, 10 mM β-glycerophosphate and 0.5 mM Na3VO4 supplemented with a protease inhibitor cocktail (Sigma; catalogue #S8830)) and cleared (14,000g for 10 min) before use. Lysates were supplemented with 1 μg of purified GST-Ric-8A (12–491)[22] and 2 μg of mouse anti-FLAG antibody (Sigma F1804), and incubated for 4 h at 4 °C with rotation. BSA-blocked Protein G agarose beads (Thermo-Scientific) were added and tubes incubated for additional 90 min at 4 °C. Beads were washed four times (4.3 mM Na2HPO4, 1.4 mM KH2PO4, pH 7.4, 137 mM NaCl, 2.7 mM KCl, 0.1% (v/v) Tween 20, 10 mm MgCl2, 5 mm EDTA and 1 mm DTT) and immunoprecipitated proteins eluted by boiling in Laemmli sample buffer. […]",
  "data": [
    {"substance": "Full-length GIV: full-length GIV from HEK293T cells, 1,870 amino acids", "values": [
      {"measurement": "co-immunoprecipitation with nucleotide-free-mimicking mutant compared with WT", "value": "as efficiently as with the wild-type (WT) protein"}
    ]}
  ]
}
